This data set is described as follows: logP(HCOOH) reported with HPLC/MS.
[1] abbreviates: method [b]: LC-MS, pH 2.7 with 0.1% formic acid in water and acetonitrile (0.1% formic acid), linear gradient 10% to 95% acetonitrile.
[2] abbreviates: reversed phase HPLC column, pH 2.7, log p, method [b]: LC-MS, pH 2.7 with 0.1% formic acid in water and acetonitrile (0.1% formic acid), linear gradient 10% to 95% acetonitrile.
The mark [3] stands for this setting: method [b]: LC-MS at pH 2.7, 0.1% formic acid in water and acetonitrile, linear gradient 10% to 95% acetonitrile.
Where [4] appears, read: HCOOH (formic acid), logP(HCOOH), HPLC/MS.
The mark [5] stands for this setting: method [b]: LC-MS at pH 2.7 with 0.1% formic acid in water and acetonitrile (0.1% formic acid), linear gradient 10% to 95% acetonitrile.
[6] abbreviates: method [a]: HPLC on reversed phase columns, pH 2.3 with 0.1% phosphoric acid and acetonitrile as eluent.

SMILES strings stand for the structures.

As to `CCCc1ccc(C#Cc2cccc(CON=C(c3ccccc3)c3nnnn3C)n2)cc1` [Example 244], the log p under setting [1] is 5.23^[b]. For `Cc1sc(Br)nc1CON=C(c1ccccc1)c1nnnn1C` [Example 175, N-[(2-bromo-5-methyl-1,3-thiazol-4-yl)methoxy]-1-(1-methyl-1H-tetrazol-5-yl)-1-phenylmethanimine], the chromatographic logP (as a rule, lipophilicity estimated from chromatographic retention) worked out at 3.37 (HPLC, logP(HCOOH), HPLC/MS) and 3.37 under setting [2]. Regarding `Cc1nnnn1C(=NOCc1csc(C#CCC2CCCCC2)n1)c1ccccc1` [Example 169], the log p under setting [1] was 5.41^[b]. Turning to `CCSCC#Cc1ccc(F)c(CON=C(c2ccccc2)c2nnnn2C)n1` [Example 102], the log p under setting [3] is 3.85^[b]. For `Cn1nnnc1C(=NOCc1cccc(C#CCOCc2ccccc2)n1)c1ccccc1` [Example 255], under setting [1], the log p is 3.96^[b]. Consider `Cn1nnnc1C(=NOCc1cccc(CNC(=O)CCc2ccccc2)n1)c1ccccc1` [Example 58], for which the log p under setting [3] is 2.82^[b]. Still for that read-out and setting: under `COc1ccc(CON=C(c2ccccc2)c2nnnn2C)nc1C#CCC1CCCCC1` [Example 129] stands 4.84^[b].

Take `CSc1cccc(C(=NOCc2cccc(N)n2)c2nnnn2C)c1` [6-{[({[3-(methylsulfanyl)phenyl](1-methyl-1H-tetrazol-5-yl)methylene}amino)oxy]methyl}pyridin-2-amine]: under setting [4], the chromatographic logP came out at 1.42. Regarding `COc1ccc(CON=C(c2ccccc2)c2nnnn2C)nc1C#CC(C)(C)C` [Example 133], the log p under setting [1] is 3.92^[b].

Take `CCCCCNC(=S)Nc1cccc(CON=C(c2ccccc2)n2nnnc2C)n1` [Example 13]: the log p under setting [3] is 3.82^[b]. Compound `CCCCCCNc1cccc(CON=C(c2cccc(N(C)C)c2)c2nnnn2C)n1` [Example 311] came in with a chromatographic logP (reversed phase HPLC column, pH 2.7, log p, method [b]: LC-MS at pH 2.7 with 0.1% formic acid in water and acetonitrile (0.1% formic acid), linear gradient 10% to 95% acetonitrile) of 2.44.

Take `Cn1nnnc1C(=NOCc1csc(C#Cc2cccc(C#N)c2)n1)c1ccccc1` [Example 259]: the log p under setting [1] is 3.76^[b]. For `CCCCC#Cc1nc(CON=C(c2ccccc2)c2nnnn2C)c(Cl)s1` [Example 117], the log p under setting [3] is 5.22^[b].

In the case of `CCCC#Cc1nc(CON=C(c2ccccc2)c2nnnn2C)c(Cl)s1` [Example 115], under setting [3], the log p was 4.75^[b]. Turning to `Cn1nnnc1C(=NOCc1cccc(NC(=O)SC(C)(C)C)n1)c1ccccc1` [Example 309], under setting [5], the log p is 4.19^[b]. In the case of `COC[C@H](C)NC(=O)c1cccc(CON=C(c2ccccc2)c2nnnn2C)n1` [Example 83], under setting [3], the log p was 2.7^[b]. Turning to `Cn1nnnc1C(=NOCc1cccc(NOCCc2ccccc2)n1)c1ccccc1` [Example 287], under setting [5], the log p was 3.69^[b]. For the compound `Cn1nnnc1C(=NOCc1cccc(C#Cc2ccc(Cl)cc2)n1)c1ccccc1` [Example 250], under setting [1], the log p was 4.54^[b]. In the case of `CC(C)CCC#Cc1nc(CON=C(c2ccccc2)c2nnnn2C)c(Cl)s1` [Example 118], the log p under setting [3] is 5.59^[b]. As for `CCCCCCN(C=O)c1cccc(C)n1` [N-hexyl-N-(6-methylpyridin-2-yl)formamide], the chromatographic logP under setting [4] amounted to 3.46. Take `CC(C)(C)OC(=O)N(CCC1CCCCC1)c1cccc(CO)n1` [tert-butyl (2-cyclohexylethyl)[6-(hydroxymethyl)pyridin-2-yl]carbamate]: under “logP(HCOOH), HPLC/MS”, the chromatographic logP amounted to 4.49.

For `COc1ccc(C#Cc2nc(CON=C(c3ccccc3)c3nnnn3C)cs2)cc1` [Example 192], the log p under setting [1] is 4.14^[b].

On to `Cn1nnnc1C(=NOCc1nc(C#CCCCCl)sc1Cl)c1ccccc1` [Example 121], for which the log p under setting [3] was 4.51^[b]. For the compound `Cn1nnnc1C(=NOCc1cccc(C(O)CCc2ccccc2)n1)c1ccccc1` (stereo not drawn) [Example 176], the log p under setting [6] was 3.35^[a]. On the same count and under the same terms, under `Cn1nnnc1C(=NOCc1cccc(N(CC2CC2)C(=O)OC(C)(C)C)n1)c1ccccc1` [Example 142] stands 4.7^[a]. As to `Cn1nnnc1C(=NOCc1cccc(C#Cc2ccccc2Cl)n1)c1ccccc1` [Example 215], the log p under setting [1] is 4.36^[b].

Consider `Cc1nnnn1C(=NOCc1csc(C#CCC2CCCC2)n1)c1ccccc1` [Example 170], for which, under setting [1], the log p is 4.97^[b].

`CCCOc1ccc(C#Cc2nc(CON=C(c3ccccc3)c3nnnn3C)cs2)cc1` [Example 256]: the log p under setting [1] is 5.03^[b]. The same measure, in the same setting: under `Cn1nnnc1C(=NOCc1cccc(C#Cc2ccc(Oc3ccccc3)cc2)n1)c1ccccc1` [Example 234] stands 5.08^[b]. With `Cc1cccc(NC(=O)C(C)(C)C)[n+]1[O-]` [2,2-dimethyl-N-(6-methyl-1-oxidopyridin-2-yl)propanamide], the chromatographic logP under setting [4] is 1.5.

With `CC(=O)OCCCC#Cc1nc(CON=C(c2ccccc2)c2nnnn2C)cs1` [Example 137], under setting [6], the log p is 3.17^[a].

For `CCCCOc1ccc(C#Cc2cccc(CON=C(c3ccccc3)c3nnnn3C)n2)cc1` [Example 226], the log p under setting [1] is 5.29^[b]. Regarding `Cc1nnnn1C(=NOCc1cccc(NC(=S)NCCc2ccccc2)n1)c1ccccc1` [Example 7], the log p under setting [3] was 3.67^[b].

With `Cc1sc(C#CC2CC2)nc1CON=C(c1ccccc1)c1nnnn1C` [Example 181], the chromatographic logP under setting [2] turned out to be 3.83. Under setting [4], `Cc1sc(Br)nc1CO` [(2-bromo-5-methyl-1,3-thiazol-4-yl)methanol] showed a chromatographic logP of 1.1. `CCCCC#Cc1nc(CON=C(c2cccc(SC)c2)c2nnnn2C)cs1` [Example 301]: under setting [5], the log p is 4.78^[b]. As for `Cn1nnnc1C(=NOCc1cccc(NCCC2CCCCC2)n1)c1cccc(F)c1` [Example 291], the log p under setting [5] is 3.27^[b].

On to `C#Cc1nc(CON=C(c2cccc(F)c2)c2nnnn2C)cs1` [Example 157], for which, under setting [1], the log p was 2.88^[b].

Turning to `Cn1nnnc1C(=NOCc1nc(C#CCOc2ccccc2)sc1Cl)c1ccccc1` [Example 119], the log p under setting [3] is 4.62^[b]. The same measure, in the same setting: under `Cc1nnnn1C(=NOCc1cccc(NC(=S)Nc2ccccc2)n1)c1ccccc1` [Example 5] stands 3.31^[b].

For `CCCCC#Cc1nc(CON=C(c2ccccc2)n2nnnc2C)cs1` [Example 164], the log p under setting [1] is 4.49^[b]. With `COC=CC#Cc1nc(CON=C(c2ccccc2)c2nnnn2C)cs1` [Example 136], under setting [6], the log p is 3.06^[a]. As for `Cn1nnnc1C(=NOCc1csc(C#Cc2ccc(OC(F)(F)F)cc2)n1)c1ccccc1` [Example 266], the log p under setting [1] was 4.89^[b]. With `Cn1nnnc1C(=NOCc1cccc(C#CCC2CCC2)n1)c1ccccc1` [Example 111], the log p under setting [3] was 4.39^[b]. Under setting [4], `CSc1cccc(C(=NOCc2cccc(N(CCC3CCCCC3)C(=O)OC(C)(C)C)n2)c2nnnn2C)c1` [tert-butyl (2-cyclohexylethyl)(6-{[({[3-(methylsulfanyl)phenyl](1-methyl-1H-tetrazol-5-yl)methylene}-amino)oxy]methyl}pyridin-2-yl)carbamate] returned a chromatographic logP of 6.83. `CC(C)c1ccc(C#Cc2nc(CON=C(c3ccccc3)c3nnnn3C)cs2)cc1` [Example 257]: the log p under setting [1] was 5.29^[b].

In the case of `COc1ccc(C#Cc2cccc(CON=C(c3ccccc3)c3nnnn3C)n2)cc1` [Example 228], under setting [1], the log p was 4.01^[b]. Take `Cn1nnnc1C(=NOCc1cccc(NCC2CC2)n1)c1ccccc1` [Example 144]: the log p under setting [6] was 1.75^[a]. Turning to `Cc1cccc(CON=C(c2ccccc2)c2nnnn2C)n1` [Example 42], the log p under setting [3] was 1.67^[b]. With `Cn1nnnc1C(=NOCc1cccc(C#Cc2ccc(-c3ccccc3)cc2)n1)c1ccccc1` [Example 216], the log p under setting [1] was 5.11^[b].

With `Cn1nnnc1C(=NOCc1cccc(NCCOC2CCCC2)n1)c1ccccc1` [Example 204], the log p under setting [1] was 2.14^[b]. For the compound `Cc1ccc(C#Cc2cccc(CON=C(c3ccccc3)c3nnnn3C)n2)cc1` [Example 231], the log p under setting [1] was 4.44^[b]. With `COc1ccc(CON=C(c2ccccc2)c2nnnn2C)nc1C#CCOc1ccccc1` [Example 131], under setting [3], the log p is 3.8^[b].

As to `C#Cc1nc(CON=C(c2ccccc2)c2nnnn2C)cs1` [Example 139], the log p under setting [6] is 2.77^[a].

For `Cc1nnnn1C(=NOCc1cccc(N=CNC#N)n1)c1ccccc1` [Example 1], the log p under setting [3] was 2.22^[b].

Consider `Cn1nnnc1C(=NOCc1cccc(C#CC2CC2)n1)c1ccccc1` [Example 109], for which the log p under setting [3] was 3.46^[b]. Regarding `CCCCCNC(=O)c1cccc(CON=C(c2ccccc2)n2nnnc2C)n1` [Example 16], the log p under setting [3] was 3.52^[b]. As for `CN(C)c1cccc(C(=NO)c2nnnn2C)c1` [3-[(hydroxyimino)(1-methyl-1H-tetrazol-5-yl)methyl]-N,N-dimethylaniline], under setting [4], the chromatographic logP is 1.17. Take `CCN(C)C=Nc1cccc(CON=C(c2ccccc2)n2nnnc2C)n1` [Example 3]: the log p under setting [3] is 1.43^[b]. As to `COC(=O)CCCC#Cc1nc(CON=C(c2ccccc2)c2nnnn2C)cs1` [Example 195], the log p under setting [1] was 3.33^[b]. With `Cn1nnnc1C(=NOCc1csc(C#CCCCC#N)n1)c1cccc(F)c1` [Example 154], the log p under setting [1] is 3.09^[b]. Regarding `Cn1nnnc1C(=NOCc1nc(C#CCCC2CCCCC2)ccc1F)c1ccccc1` [Example 107], the log p under setting [3] is 5.68^[b]. For `OCc1cccc(C2OCCO2)n1` [[6-(1,3-dioxolan-2-yl)pyridin-2-yl]methanol], the chromatographic logP under setting [4] amounted to 0.54. Same read-out and setting: the figure for `Cc1c(F)ccc(Br)[n+]1[O-]` [6-bromo-3-fluoro-2-methylpyridine 1-oxide] is 0.56. Turning to `CSc1cccc(C(=NOCc2csc(C#CC3CCCCC3)n2)c2nnnn2C)c1` [Example 304], the log p under setting [5] is 5.29^[b].

The values are drawn from patent US8466176B2 (priority 2008, dated 2013).
